Source: article PMC6150346, “Disrupting VEGF–VEGFR1 Interaction: De Novo Designed Linear Helical Peptides to Mimic the VEGF13-25 Fragment” (Molecules : A Journal of Synthetic Chemistry and Natural …, 2017)
Read-outs that look alike come from different tables or passages of the source.

Legend:
[1] = target: T1, extracellular domain (ECD, D1–D7) of VEGFR1 (Homo sapiens, UniProt P17948); test: Chemiluminescent competition (displacement) assay: biotinylated VEGF165 (VEGF-A) vs peptide on coated VEGFR1; assay type: binding; details: for % of Displacement, 100 μM: biotinylated VEGF-A (131 pM btVEGF165) displaced by 100 μM peptide on VEGFR1 ECD (D1–D7), PBS 1% DMSO, 3 h 37 °C; for % of Displacement, 100 μM / % of Displacement, 30 μM: chemiluminescence; for % of Displacement, 100 μM / % of Displacement, 30 μM / IC50: three experiments in triplicate; for % of Displacement, 30 μM + EDTA: biotinylated VEGF-A displaced by 30 μM peptide in the presence of EDTA on VEGFR1 ECD (D1–D7), to avoid false positives from metals or aggregation; for % of Displacement, 30 μM: biotinylated VEGF-A displaced by 30 μM peptide on VEGFR1 ECD (D1–D7); for IC50: dose–response displacement assay on VEGFR1, log(inhibitor) vs. response fit, GraphPad Prism, read-out: IC50 (95% Confident Interval), relative inhibitory concentration 50
T1 construct: VEGFR-1 D1-D7 (ECD domain)/Fc Chimera; purchased Bio-techne R&D, Abingdon, UK
T1 sequence (P17948 27-758 limits assumed): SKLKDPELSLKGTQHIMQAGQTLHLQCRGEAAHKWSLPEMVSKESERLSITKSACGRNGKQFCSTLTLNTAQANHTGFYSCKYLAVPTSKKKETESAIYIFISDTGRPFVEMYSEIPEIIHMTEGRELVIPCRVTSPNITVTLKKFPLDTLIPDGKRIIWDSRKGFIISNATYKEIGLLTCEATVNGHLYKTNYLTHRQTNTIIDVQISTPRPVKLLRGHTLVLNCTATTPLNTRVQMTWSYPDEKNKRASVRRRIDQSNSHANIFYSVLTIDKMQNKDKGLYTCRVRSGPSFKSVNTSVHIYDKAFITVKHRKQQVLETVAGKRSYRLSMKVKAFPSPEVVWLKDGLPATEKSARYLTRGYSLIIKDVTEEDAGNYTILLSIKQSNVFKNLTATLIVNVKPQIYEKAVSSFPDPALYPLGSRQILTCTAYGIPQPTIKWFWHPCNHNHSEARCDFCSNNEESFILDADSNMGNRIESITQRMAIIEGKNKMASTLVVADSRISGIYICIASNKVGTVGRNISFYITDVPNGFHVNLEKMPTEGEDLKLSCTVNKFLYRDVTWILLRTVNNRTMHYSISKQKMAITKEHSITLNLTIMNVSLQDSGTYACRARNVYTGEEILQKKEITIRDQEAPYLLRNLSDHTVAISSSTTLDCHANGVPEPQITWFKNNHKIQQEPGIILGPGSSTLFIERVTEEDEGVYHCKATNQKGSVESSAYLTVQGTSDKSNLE
Experimental: The binding studies were performed on VEGF isoform VEGF-A (VEGF165) that is the most commonly involved in pathological angiogenesis. Compounds were first evaluated for their ability to displace biotinylated VEGF-A at two different doses, 30 and 100 μM (Table 2). A chemiluminescent assay, relying on competition between tested compounds and biotinylated VEGF-A for binding to the extracellular domain of recombinant VEGFR1, was used.
As described by Muller Y. A. et al., the surface of white high-binding 96-well microplate (Corning Life Sciences, Amsterdam, The Netherlands) was coated with 100 μL of phosphate-buffered saline solution (PBS, pH 7.4) containing 200 ng/mL of VEGFR-1 D1-D7 (ECD domain)/Fc Chimera or 150 ng/mL of VEGFR1 D1-D3/Fc chimera (Bio-techne R&D, Abingdon, UK) and incubated at 4 °C overnight. After three washes with 250 μL of PBS 0.1%, (v/v) tween 20 (buffer A), the plate was blocked by 200 μL of PBS with 3% (w/v) of BSA and stirred at 37 °C for 2 h. The plate was washed three times with buffer A. Then, 100 μL of a solution containing 131 pM of btVEGF165 (Bio-techne, R&D, Abingdon, UK) and the tested compounds at various concentration diluted in PBS containing 1% DMSO were added in each well. After 3 h stirring at 37 °C, the plate was washed four times with buffer A and 100 μL of streptavidin-horseradish peroxidase (Amersham Biosciences, Little Chalfont, UK) diluted at 1:8000 in PBS containing 0.1% (v/v) Tween 20 and 0.3% (w/v) BSA were added per well. After 1 h of incubation at 37 °C under obscurity and stirring, the plate was washed five times with 250 μL of buffer A and 100 μL of SuperSignal West Pico chemiluminescent substrate (Pierce, Appleton, WI, USA) were added. The remaining bt-VEGF165 was detected by chemiluminescence, which was quantified. The percentages of btVEGF165 displacement were calculated by the following formula: percentage of displacement = 100 × [1 − (S − NS)/(MS − NS)], where S is the signal measured, NS is the nonspecific binding signal and MS is the maximum binding signal observed with btVEGF165 without compounds tested. […] Each experiment was performed three times in triplicate.

[2] = target: T1, extracellular domain (ECD, D1–D7) of VEGFR1; details: cited from earlier work

Row | Substance | % of Displacement, 100 μM [1] [%] | % of Displacement, 30 μM + EDTA [1] [%] | % of Displacement, 30 μM [1] [%] | IC50 [1] [µM] | IC50 ([2]; displacement of biotinylated VEGF165 from VEGFR1 ECD, previous study, read-out: IC50 (relative inhibitory concentration 50)) [µM] | % of Displacement, 100 μM ([2]; percentage of biotinylated VEGF165 displaced by 100 μM peptide on whole extracellular domain (ECD, D1–D7) of VEGFR1, previously described peptides) [%]
1 | Ac-SSEEYARNWAAWN-NH2 [Compound 8] | 63 ± 2 | 40 ± 7 | 63 ± 1 | 25.6 |  | 
2 | Ac-SSEEFARNWAAFN-NH2 [Compound 12] | 55 ± 1 | 53 ± 4 | 66 ± 1 | 48.6 |  | 
3 | Ac-SSEEFARNIAAYN-NH2 [Compound 32] | 60 ± 1 | 55 ± 1 | 59 ± 4 | 30.4 |  | 
4 | Ac-KLTWQELYQLKYKGI-NH2 [QK, proangiogenic peptide of D'Andrea and co-workers] |  |  |  |  | 32 ± 8 | 69 ± 3

More lines, main results first:

Row | % of Displacement, 100 μM [1] [%] | % of Displacement, 30 μM + EDTA [1] [%] | % of Displacement, 30 μM [1] [%] | IC50 [1] [µM] | Substance | IC50 ([2]; displacement of biotinylated VEGF165 from VEGFR1 ECD, previous study, read-out: IC50 (relative inhibitory concentration 50)) [µM] | % of Displacement, 100 μM ([2]; percentage of biotinylated VEGF165 displaced by 100 μM peptide on whole extracellular domain (ECD, D1–D7) of VEGFR1, previously described peptides) [%]
5 | 72 ± 1 | 71 ± 2 | 60 ± 3 | 0.046 | Ac-SSEEFARNWAAIN-NH2 [Compound 29] |  | 
6 | 62 ± 1 | 44 ± 5 | 71 ± 2 | 21.3 | Ac-SSEEWARNYAAFN-NH2 [Compound 16] |  | 
7 | 58 ± 1 | 56 ± 6 | 62 ± 4 | 14 | Ac-SSEEYARNWAAFN-NH2 [Compound 14] |  | 
8 | 55 ± 1 | 55 ± 4 | 64 ± 3 | 14.5 | Ac-SSEEWARNFAAFN-NH2 [Compound 10] |  | 
